# Data: patent publication US11612615B2, “Combined administration of cysteine-aspartic protease inhibitors with P2Y12 receptor antagonists protects the heart against myocardial infarction” (The University of South Alabama, priority 2017, dated 2023)
# Entries after “also recorded” stand apart in the source; their conditions may differ.
# Assays:
# [1] = test system: I/R injury of the heart (LAD occlusion); assay: In situ open-chest LAD occlusion, 60-min ischemia/120-min reperfusion, infarct size by TTC staining; assay type: in vivo, Sprague-Dawley rats; settings: for infarct size / cardioprotection (in words): open chest rat hearts, 60 min ischemia/120-min reperfusion, treatment just prior to reperfusion; for infarction, % of the risk zone: rat, 60-min LAD ligation/120-min reperfusion, VX-765 32 mg/kg iv 5 min, cangrelor 60 μg/kg iv bolus + 6 μg/kg/min, ticagrelor 30 mg/kg ip 10 min prior to reperfusion, mean ± standard error
# coronary I/R = settings: rat models of coronary I/R; cited from earlier work
# [2] = test system: buffer perfused mouse hearts (global ischemia); assay: Isolated buffer-perfused mouse heart, 35 or 50 min global ischemia/2 h reperfusion, infarct size; design: species or system C57BL/6 mice; settings: for infarct size reduction (in words): mouse heart, 30 uM VX-765 10 min prior to ischemia and throughout reperfusion, 9 uM emricasan first 20 min of reperfusion, FIG. 9
# Experimental: Hearts were removed from pentobarbital-anesthetized C57BL/6 mice and quickly (less than 3 min) mounted on a Langendorff perfusion apparatus where they were retroperfused with Krebs buffer at 100 mmHg pressure and at 37 Deg C. After 20 min perfusion to equilibrate the perfusion was stopped to create global ischemia. After and index ischemia of either 35 or 50 min the hearts were reperfused for 2 h and infarct size was measured by triphenyltetrazolium staining. Treatments included 30 uM VX-765 for 10 min prior to ischemia and throughout reperfusion, 9 uM emricasan for the first 20 min of reperfusion only, Ischemic preconditioning (IPC) with three cycles of 5 min ischemic Plus 5 min reperfusion prior to the index ischemia, or IPC+emricasan.
# [3] = test system: blood-free isolated rat hearts (global I/R injury); assay: Ex vivo isolated buffer-perfused heart, 40-min global ischemia/120-min reperfusion
# Experimental: To examine effects of VX-765 on blood-free isolated hearts, rats were anesthetized as described above. Animals were intubated through tracheotomy and positive pressure ventilation initiated with 100% oxygen. A thoracotomy was performed and the heart was quickly excised from the chest cavity for mounting on a Langendorff apparatus (within one minute). The coronary arteries were retroperfused with Krebs buffer through the aortic root and a latex balloon was placed in the lumen of the left ventricle allowing volume adjustment to 100 mmHg peak ventricular pressure. After a 20-min period of equilibration, perfusion was stopped for 40-min to induce global ischemia. The heart was maintained in a water-jacketed chamber filled with buffer during the occlusion period at a constant temperature of 37° C. Perfusion was re-initiated and continued for 120-min. The balloon was deflated at the beginning of reperfusion so subendocardial perfusion would not be impaired by any elevation in luminal diastolic pressure. The balloon was reinflated to zero diastolic pressure (unstressed ventricular volume) so final developed pressure could be measured. The coronary effluent was sampled immediately prior to ischemia, immediately at reperfusion, and serially thereafter every 20-min. The heart was perfused with buffer containing either vehicle (DMSO) or VX-765 for 10-min prior to ischemia and again during reperfusion. Two groups were tested: 1) DMSO vehicle control perfused at 0.5 mL/L of buffer and 2) VX-765, 30 μM final concentration. After 120 minutes reperfusion, developed pressure was measured as the difference between end-systolic and end-diastolic left ventricular pressure with a transducer attached to the intraventricular balloon. Infarct size was measured as above. Collected effluent was analyzed for lactate dehydrogenase (LDH) as previously described. An independent aliquot was concentrated 20-fold using a 3,000 MW cut-off ultrafilter (Millipore) and assayed for IL-113 by ELISA (ThermoFisher Scientific).
# IL-1β = assay: In situ open-chest LAD occlusion, 60-min ischemia/30-min reperfusion: serum IL-1β ELISA; assay type: in vivo, rat; settings: VX-765 32 mg/kg 5-min prior to reperfusion, FIG. 4A
# Experimental: (§1) Applicants' standard in situ open chest LAD occlusion protocol was modified to examine effects of a 30-min reperfusion period on heart tissue enzymes and metabolic function. Two groups were tested with infusions occurring 5-min prior to reperfusion: 1) vehicle control DMSO (the VX-765 solvent) was administered as (1.0 mL of 100% DMSO)×(kg body weight) with the final infusion volume adjusted to 0.9 mL with normal saline; and 2) VX-765, 32 mg/kg. Immediately prior to experiment terminus, blood was collected and serum assayed by ELISA for levels of circulating IL-113. At experiment terminus, the heart was removed from the chest and mounted on a Langendorff apparatus where it was perfused with normal saline. The coronary branch was re-occluded and 15 μm fluorescent microspheres were infused to identify the ischemic zone followed by acquisition of biopsies from both ischemic and non-ischemic zones. […] Normalized amounts of protein were resolved by SDS-PAGE (4-20% Tris-Glycine gradient gels) and analyzed by immunoblotting using antibodies against Caspase-1, glyceraldehyde-3-phosphate dehydrogenase (GAPDH), Aldolase-A, and Hexokinase II. […] For all blotting experiments, protein transfer membranes were first stained with Coomassie Brilliant Blue (CBB) and analyzed on the LiCor Odyssey for total protein levels. […]
# [4] = test system: Caspase-1, GAPDH, Aldolase-A, Hexokinase II; assay: 60-min ischemia/30-min reperfusion: immunoblotting of heart tissue biopsies; assay type: in vivo, rat
# Experimental: (§2) Applicants' standard in situ open chest LAD occlusion protocol was modified to examine effects of a 30-min reperfusion period on heart tissue enzymes and metabolic function. Two groups were tested with infusions occurring 5-min prior to reperfusion: 1) vehicle control DMSO (the VX-765 solvent) was administered as (1.0 mL of 100% DMSO)×(kg body weight) with the final infusion volume adjusted to 0.9 mL with normal saline; and 2) VX-765, 32 mg/kg. Immediately prior to experiment terminus, blood was collected and serum assayed by ELISA for levels of circulating IL-113. At experiment terminus, the heart was removed from the chest and mounted on a Langendorff apparatus where it was perfused with normal saline. The coronary branch was re-occluded and 15 μm fluorescent microspheres were infused to identify the ischemic zone followed by acquisition of biopsies from both ischemic and non-ischemic zones. Viable samples were immediately prepared for high resolution respirometry using the Oroboros oxygraph O2K as previously described. In parallel, a portion of the biopsied tissue was immediately ejected into liquid nitrogen and stored at −80° C. Subsequently, tissues were homogenized and solubilized for analyses of total protein. Normalized amounts of protein were resolved by SDS-PAGE (4-20% Tris-Glycine gradient gels) and analyzed by immunoblotting using antibodies against Caspase-1, glyceraldehyde-3-phosphate dehydrogenase (GAPDH), Aldolase-A, and Hexokinase II. In a separate set of blots, samples were assayed for protein oxidation (carbonylation) using the oxidized protein western blot kit (Abcam, oxyblotting). For all blotting experiments, protein transfer membranes were first stained with Coomassie Brilliant Blue (CBB) and analyzed on the LiCor Odyssey for total protein levels. These CBB data were used to normalize all immuno- and oxyblotting data.
# [5] = test system: mitochondrial complexes (Complex-I, Complex-III); assay: 60-min ischemia/30-min reperfusion: high resolution respirometry of heart tissue biopsies; assay type: in vivo, rat
# Experimental: as §2
# Tissue mitochondrial function is reported as the amount of oxygen consumed (i.e., JO2). In this protocol, heart tissues are harvested 30-min after reperfusion to ensure tissue retention of mitochondrial function and permeabilized with detergents to allow direct assessment of each mitochondrial complex via addition of specific substrates (i.e., electron donors) and poisons. Using this early 30-min reperfusion time point allows differentiation of dysfunctional mitochondrial complex activities from the absolute loss of function occurring at later time points after cell death had ensued. As a further level of experimental control, mitochondrial complex activities were assayed in non-ischemic and ischemic zone tissues isolated from animals treated with vehicle control (DMSO) or the Caspase-1 inhibitor VX-765.
# protein carbonylation = assay: 60-min ischemia/30-min reperfusion: protein oxidation (carbonylation) oxyblotting of heart tissue; assay type: in vivo, rat; settings: ischemic and non-ischemic tissues, FIG. 5D
# Experimental: as §1
# [6] = test system: I/R injury of the heart (LAD occlusion); settings: VX-765 16 mg/kg body weight 30-min prior to onset of ischemia; cited from earlier work
compound,measurement,setting,value
CSCCNc1nc(SCCC(F)(F)F)nc2c1ncn2[C@@H]1O[C@H](COP(=O)(O)OP(=O)(O)C(Cl)(Cl)P(=O)(O)O)[C@@H](O)[C@H]1O [cangrelor],infarct size / cardioprotection (in words),[1],reduced infarct size
same,"infarction, % of the risk zone",[1],43.8±2.4%
CCCSc1nc(N[C@@H]2C[C@H]2c2ccc(F)c(F)c2)c2nnn([C@@H]3C[C@H](OCCO)[C@@H](O)[C@H]3O)c2n1 [ticagrelor],protection when combined with ischemic postconditioning (IPOC),"[1]; IPOC three cycles of 30 s reperfusion/30 s occlusion at end of 60 min ischemia, FIG. 10",no more protective than either alone
same,infarct size / cardioprotection (in words),[1],reduced infarct size; also recorded: no more cardioprotective than cangrelor
same,"infarction, % of the risk zone",[1],42.8±3.3%
zVAD,infarct size,coronary I/R,reduced infarct size
C[C@H](NC(=O)C(=O)Nc1ccccc1C(C)(C)C)C(=O)N[C@@H](CC(=O)O)C(=O)COc1c(F)c(F)cc(F)c1F [emricasan],protection in combination with ischemic preconditioning (IPC),"[2]; index ischemia 50 min, IPC three cycles 5 min ischemia/5 min reperfusion, 9 uM emricasan",additive protection
same,infarct size reduction (in words),[2],similarly reduced infarct size; also recorded: equipotent for infarct size reduction
same,infarct size reduction (in words),[2]; listed as Emricasan,as protective as VX-765 pretreatment
"CCO[C@@H]1OC(=O)C[C@@H]1NC(=O)[C@@H]1CCCN1C(=O)[C@@H](NC(=O)c1ccc(N)c(Cl)c1)C(C)(C)C [VX-765, (S)-1-((S)-2-{[1-(4-amino-3-chloro-phenyl)-methanoyl]-amino}-3,3-dimethyl-butanoyl)-pyrrolidine-2-carboxylic acid ((2R,3S)-2-ethoxy-5-oxo-tetrahydro-furan-3-yl)-amide]",dose dependence of infarct size reduction (pilot studies),"[1]; VX-765 iv prior to ischemia, data not shown",independent of the dose above 16 mg/kg
same,infarct size / cardioprotection (in words),[1],reduced infarct size
same,"infarction, % of the risk zone",[1],38.6±3.9%
same,LDH release into coronary effluent,"[3]; VX-765 30 μM, FIG. 3C",all but abolished
same,protection against global I/R injury (in words),"[3]; blood free isolated buffer-perfused heart, FIG. 3",protects against global I/R injury
same,left ventricular developed pressure,"[3]; end of 120-min reperfusion, VX-765 30 μM",20.5±4.2 mmHg
same,average infarction,"[3]; isolated rat heart, VX-765 30 μM in perfusate prior to ischemia and during reperfusion",45.8±1.5%
same,"IL-1β level in blood, vehicle (DMSO) compared to VX-765",IL-1β,significantly higher levels of IL-113 in blood when compared to animals treated with VX-765
same,levels of active Caspase-1 in tissue,"[4]; ischemic tissue, VX-765 32 mg/kg, FIG. 4B",did not prevent Caspase-1 activation
same,GAPDH degradation,"[4]; ischemic zone, FIG. 4C",prevented degradation of GAPDH in the ischemic zone
same,aldolase-A degradation,"[4]; ischemic zone, FIG. 4D",partially prevented degradation of aldolase-A
same,hexokinase II degradation (negative control),"[4]; ischemic zone, FIG. 4E",no effect in hexokinase II
same,Complex-III activity,"[5]; compared to vehicle, FIG. 5C",no significant differences
same,JO2 in different states of mitochondrial respiration,"[5]; different substrates, FIG. 7",none of the heart tissues from any group displayed JO2 differences
same,Complex-I activity,"[5]; non-ischemic and ischemic tissues, compared to vehicle, FIG. 5B",significantly decreased Complex-I activity
same,respiratory ratio (mitochondrial fitness),"[5]; tissues reperfused for 30-min, FIG. 5A",not different among all groups
same,protein carbonylation,protein carbonylation,no differences in protein carbonylation
same,infarct size reduction (in words),[2],similarly reduced infarct size; also recorded: equipotent for infarct size reduction
same,"cardioprotection, previously reported",[6],extremely cardioprotective
